Test results from patent US20230192660A1 (priority 2020, published 2023).
Values after ≈ are worked out from the molar mass of the structure shown. Values joined by “and” are separate entries in the source; they are usually repeats but may differ in a detail not shown here. Identical values can stand only once. Like-named read-outs stand apart in the source and are kept apart here.

Assays:
MHV M^pro = MHV M^pro (UniProt P0C6X9); experiment: In-vitro Mpro inhibition assay, MHV enzyme; format: biochemical, mouse hepatitis virus (MHV)
Sequence of MHV M^pro (P0C6X9 3334-3635): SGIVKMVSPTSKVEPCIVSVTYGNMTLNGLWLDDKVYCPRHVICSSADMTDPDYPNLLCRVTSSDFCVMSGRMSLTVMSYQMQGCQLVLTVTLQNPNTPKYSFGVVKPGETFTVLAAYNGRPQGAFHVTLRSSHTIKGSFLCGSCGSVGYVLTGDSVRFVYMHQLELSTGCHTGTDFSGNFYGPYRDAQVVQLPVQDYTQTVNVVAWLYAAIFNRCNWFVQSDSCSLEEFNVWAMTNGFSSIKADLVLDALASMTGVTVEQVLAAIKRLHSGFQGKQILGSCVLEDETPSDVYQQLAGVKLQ

Human Cathepsin B = Human Cathepsin B (Homo sapiens, UniProt P07858); experiment: Cathepsin B protease specificity assay (Z-LR-AMC substrate); format: biochemical
Human Cathepsin L = Human Cathepsin L (Homo sapiens, UniProt P07711); experiment: biochemical; settings: 0.01 ng/uL Cathepsin L, pH 5.5, 2 mM DTT; read-out: IC50 HCathepsin L
Sequence of Human Cathepsin L (P07711 114-333): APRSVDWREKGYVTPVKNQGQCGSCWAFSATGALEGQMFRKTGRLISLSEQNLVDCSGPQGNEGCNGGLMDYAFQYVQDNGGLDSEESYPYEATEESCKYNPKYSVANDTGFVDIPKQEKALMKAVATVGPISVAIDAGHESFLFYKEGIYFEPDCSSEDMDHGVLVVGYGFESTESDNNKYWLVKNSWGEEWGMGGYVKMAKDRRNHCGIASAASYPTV

Huh7 cells [1] = settings: read-out: CC50 Huh7; 72h incubation
[2] = not given; remark: listed apart in the source
SARSCoV2 = format: cell-based, SARS-CoV-2
[3] = not given; remark: listed apart in the source
in vitro [4] = settings: human
in vitro [5] = settings: human, Caco-2
mature SARSCoV2 M^pro = mature SARSCoV2 M^pro (Severe acute respiratory syndrome coronavirus 2, UniProt P0DTD1); experiment: biochemical; set-up: species or system SARS-CoV-2
physchem = settings: aqueous buffer, kinetic from dmso stock
SARS-CoV-2 mature Mpro = SARS-CoV-2 mature Mpro (Severe acute respiratory syndrome coronavirus 2, UniProt P0DTD1); format: binding; settings: 3 μM Mpro, 30 μM compound
in vitro [6] = settings: human; remark: listed apart in the source
HCoV229E Mpro = HCoV229E Mpro (Human coronavirus 229E, UniProt P0C6X1); experiment: biochemical
Sequence of HCoV229E Mpro (P0C6X1 2966-3267): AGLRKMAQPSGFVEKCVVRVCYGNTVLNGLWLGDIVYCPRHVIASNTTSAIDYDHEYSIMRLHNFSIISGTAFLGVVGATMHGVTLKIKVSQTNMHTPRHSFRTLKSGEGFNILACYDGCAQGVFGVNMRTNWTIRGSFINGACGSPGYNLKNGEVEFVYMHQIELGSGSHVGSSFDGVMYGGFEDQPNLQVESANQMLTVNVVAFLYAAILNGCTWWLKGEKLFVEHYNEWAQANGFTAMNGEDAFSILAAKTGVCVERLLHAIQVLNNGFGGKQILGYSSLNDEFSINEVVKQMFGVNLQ

in vitro [7] = settings: mouse, plasma
MERS Mpro = MERS Mpro (Middle East respiratory syndrome-related coronavirus, UniProt K9N7C7); experiment: biochemical
Sequence of MERS Mpro (K9N7C7 3248-3553 limits assumed): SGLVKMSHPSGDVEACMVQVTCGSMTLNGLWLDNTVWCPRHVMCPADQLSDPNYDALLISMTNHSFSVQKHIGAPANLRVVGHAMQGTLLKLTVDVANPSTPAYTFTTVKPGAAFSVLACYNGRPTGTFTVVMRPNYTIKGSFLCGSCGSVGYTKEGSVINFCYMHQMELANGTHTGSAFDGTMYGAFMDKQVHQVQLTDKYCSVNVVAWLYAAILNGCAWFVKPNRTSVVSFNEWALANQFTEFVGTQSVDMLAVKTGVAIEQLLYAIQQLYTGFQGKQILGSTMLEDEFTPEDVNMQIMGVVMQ

in vitro [8] = settings: human, Caco-2; remark: listed apart in the source
in vitro [9] = settings: human plasma
SARS-CoV-2 M^pro-His6 = SARS-CoV-2 M^pro-His6 (Severe acute respiratory syndrome coronavirus 2, UniProt P0DTD1); experiment: biochemical; settings: for inhibition at 150 µM: read-out: inhibition of enzyme activity
[10] = cited from earlier work
in vitro [11] = settings: human; remark: listed apart in the source
Huh7 cells [12] = settings: 100 μM, Huh-7 cells
[13] = after a nasal dose; cited from earlier work
[14] = 100 nM MHV Mpro, read-out: IC50 MHV Mpro
[15] = read-out: IC50, 100 nM mature MHV M^pro at 30° C., 100 nM enzyme, 30° C.
[16] = 0.05 ng/uL Cathepsin B, pH 5.5, 2 mM DTT, read-out: IC50 HCathepsin B
[17] = Example 6, read-out: IC50 against SARS-CoV-2 Mpro
[18] = 20 nM SARSCoV2 Mpro, 30 min incubation, read-out: IC50 SARSCov2 Mpro

| SMILES | IC50 (MHV M^pro; [14]) [nM] | IC50 (Human Cathepsin B; [16]) [nM] | Plasma Stability Human T1/2 | IC50 (Human Cathepsin L) [nM] | CC50 (in vitro [4]) [nM] | Papp A→B (in vitro [5]) [×10⁻⁶ cm/s] | Papp B→A (in vitro [5]) [×10⁻⁶ cm/s] | solubility kinetic (physchem) [µM] | ΔTm Mpro (SARS-CoV-2 mature Mpro) [°C] | CC50 (in vitro [6]) [nM] | IC50 (HCoV229E Mpro) [nM] | half-life (in vitro [7]) [h] | IC50 (MERS Mpro) [nM] | IC50 (mature SARSCoV2 M^pro; [18]) [nM] | other results |
| --- | --- | --- | --- | --- | --- | --- | --- | --- | --- | --- | --- | --- | --- | --- | --- |
| CC(C)C[C@H](NC(=O)OCc1ccccc1)C(=O)N[C@@H](CC1CCNC1=O)C(O)S(=O)(=O)[O-].[Na+] (stereo partly drawn) [GC-376, reference compound] | 50 | 1 | 1.58 h | 1 |  |  |  |  |  |  |  |  |  |  | IC50 (MHV M^pro; [15]): 67 nM; Caco-2 Permeability Papp A-B (Caco-2; A-B): <0.3 10-6 cm/s; Caco-2 Permeability Papp B-A (Caco-2): 5 10-6 cm/s; CC50 (Huh7 cells [1]): > 100000 nM; Kinetic Solubility in PBS [2]: 71 µM; EC50 (SARSCoV2; read-out: EC50): 0.1 nM; Plasma Stability Mouse T1/2 [3]: 3.87 h |
| CC1(C)[C@@H]2[C@@H](C(=O)NC(C[C@@H]3CCNC3=O)C(=O)C(N)=O)N(C(=O)CNc3c(F)cc(F)cc3F)C[C@@H]21 (stereo partly drawn) [ML104] | 250 | 17000 | ∞ | 11000 | > 100000 | < 0.2 | 0.9 | 86 (≈ 45 µg/mL) | 17.5 | > 100000 | 440 | 1.67 | 190 |  | IC50 (mature SARSCoV2 M^pro; [17]): < 50 nM and 30 nM; CC50 (in vitro [8]): > 100000 nM |
| CNC(=O)C(=O)[C@H](C[C@@H]1CCNC1=O)NC(=O)[C@@H]1[C@@H]2[C@H](CN1C(=O)CNc1c(F)cc(F)cc1F)C2(C)C [ML104m] |  |  |  |  | > 100000 | 0.5 | 2.5 | 98 (≈ 52.7 µg/mL) | 17.1 | > 100000 | 230 | 1.35 | 290 |  |  |
| COc1cccc2[nH]c(C(=O)N3C[C@H]4[C@@H]([C@H]3C(=O)N[C@@H](C[C@@H]3CCNC3=O)C(=O)C(N)=O)C4(C)C)cc12 [ML105] | 60 | 700 | ∞ | 300 | > 100000 | < 0.2 | 0.3 | 80 (≈ 40.8 µg/mL) | 18.6 | > 100000 | 10 | 0.333 | 340 | 20 | IC50 (mature SARSCoV2 M^pro; [17]): < 50 nM; CC50 (in vitro [8]): > 100000 nM |
| CC(C)(C)CC(=O)N[C@H](C(=O)N1C[C@H]2[C@@H]([C@H]1C(=O)NC(C[C@@H]1CCNC1=O)C(=O)C(N)=O)C2(C)C)C(C)(C)C (stereo partly drawn) [ML1001] | 70 | 42000 |  | 33000 | > 100000 | < 0.2 | 0.5 | 66 (≈ 36.1 µg/mL) | 21.6 | > 100000 | 500 | 0.433 | 260 |  | half-life (in vitro [9]): 5.5 h; CC50 (in vitro [8]): > 100000 nM |
| O=c1c2ccccc2[se]n1-c1ccccc1 [ebselen] |  |  |  |  |  |  |  |  |  |  |  |  |  |  | inhibition at 150 µM (SARS-CoV-2 M^pro-His6): < 50% |
| CCN(CC)C(=S)SSC(=S)N(CC)CC [disulfiram] |  |  |  |  |  |  |  |  |  |  |  |  |  |  | inhibition at 150 µM (SARS-CoV-2 M^pro-His6): < 50% |
| CC(C)(C)NC(=O)N[C@H](C(=O)N1C[C@H]2[C@@H]([C@H]1C(=O)NC(CC1CCC1)C(=O)C(N)=O)C2(C)C)C(C)(C)C (stereo partly drawn) [Boceprevir, boceprevir, reference compound] | 15000 | 4500 |  | 400 |  | 2 | 29 | 73 (≈ 37.9 µg/mL) |  |  |  | 0.467 |  |  | IC50 (MHV M^pro; [15]): 15000 ± 7000 nM; peak plasma concentration ([10]; after a maximal 800 mg oral dose): 3 µM; half-life (in vitro [9]): 8.25 h; CC50 (in vitro [8]): > 100000 nM; CC50 (in vitro [11]): > 100000 nM |
| CC(C)(C)NC(=O)N[C@H](C(=O)N1C[C@H]2[C@@H]([C@H]1C(=O)N[C@@H](C[C@@H]1CCNC1=O)C(=O)C(N)=O)C2(C)C)C(C)(C)C [ML1000] |  | 5900 | 1.82 h | 3200 |  |  |  |  |  |  | 130 |  |  |  | Caco-2 Permeability Papp B-A (Caco-2): 0.4 10-6 cm/s; Caco-2 Permeability Papp A-B (Caco-2; Caco-2): <0.2 10-6 cm/s; CC50 (Huh7 cells [1]): > 100000 nM; Kinetic Solubility in PBS [2]: 87 µM; cytotoxicity at the highest dose tested (Huh7 cells [12]): no cytotoxicity; EC50 (SARSCoV2; read-out: EC50: 50% effective antiviral concentration): 100 nM; Plasma Stability Mouse T1/2 [3]: 0.383 h; IC50 (MERS Mpro; read-out: IC50 MERS Mpro): 530 nM |
| CCC[C@H](NC(=O)[C@@H]1[C@H]2CCC[C@H]2CN1C(=O)[C@@H](NC(=O)[C@@H](NC(=O)c1cnccn1)C1CCCCC1)C(C)(C)C)C(=O)C(=O)NC1CC1 [Telaprevir, telaprevir, reference compound] |  |  |  | 25000 | 10000 to 100000 |  |  |  |  | 10000 to 100000 |  |  |  |  | IC50 (Human Cathepsin B): 36000 nM; peak plasma concentration ([10]; after a maximal 750 mg dose): 5 µM |
| CC1(C)[C@@H]2[C@@H](C(=O)N[C@@H](C[C@@H]3CCNC3=O)C(=O)C(N)=O)N(C(=O)CCc3ccccc3)C[C@@H]21 [ML102] | 980 | 2200 | ∞ | 800 | > 100000 | < 0.2 | 0.7 | 83 (≈ 38.9 µg/mL) | 15.5 | > 100000 | 290 | 0.3 | 1200 | 90 |  |
| CCOC(=O)/C=C/[C@H](C[C@@H]1CCNC1=O)NC(=O)[C@@H](CC(=O)[C@@H](NC(=O)c1cc(C)on1)C(C)C)Cc1ccc(F)cc1 [rupintrivir] |  |  |  |  |  |  |  |  |  |  |  |  |  |  | concentration on nasal surfaces [13]: 5 µM |
| CNC(=O)C(=O)[C@H](C[C@@H]1CCNC1=O)NC(=O)[C@@H]1[C@@H]2[C@H](CN1C(=O)[C@@H](NC(=O)C13CC(C1)C3)C(C)(C)C)C2(C)C [ML1002m] |  |  |  |  | > 100000 | 0.4 | 0.7 | > 100 | 21 | > 100000 | 400 | 2.83 | 250 | 20 |  |
| CNC(=O)C(=O)[C@H](C[C@@H]1CCNC1=O)NC(=O)[C@@H]1[C@@H]2[C@H](CN1C(=O)CCc1ccccc1)C2(C)C [ML102m] |  |  |  |  | > 100000 | 0.4 | 1.8 | > 100 | 15.2 | > 100000 | 720 | 0.75 | 1100 | 120 |  |
| CC(C)c1nc(CN(C)C(=O)N[C@H](C(=O)N[C@@H](Cc2ccccc2)C[C@H](O)[C@H](Cc2ccccc2)NC(=O)OCc2cncs2)C(C)C)cs1 [ritonavir] |  |  |  |  |  |  |  |  |  |  |  |  |  |  | inhibition at 150 µM (SARS-CoV-2 M^pro-His6; 150 μM drug, 2 mM DTT, 100 nM M^pro-His6): < 50%; inhibition of M^pro activity (SARS-CoV-2 M^pro-His6; 150 μM, absence of DTT (air-equilibrated buffer)): no inhibitory effect |
| CC(C)(C)[C@H](NC(=O)C12CC(C1)C2)C(=O)N1C[C@H]2[C@@H]([C@H]1C(=O)N[C@@H](C[C@@H]1CCNC1=O)C(=O)C(N)=O)C2(C)C [ML1002] |  |  |  |  | > 100000 | < 0.2 | < 0.2 | > 100 | 21.6 | > 100000 | 260 | 0.35 | 190 | 20 | IC50 (mature SARSCoV2 M^pro; [17]): < 50 nM |
